Molecules are shown by their SMILES.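 Dose response: 5 concentrations. Exposure: 48 h. Format: 96-well plates. Endpoint: linear interpolation; highest concentration if not reached. GI50 marks 50% less growth. TGI is the concentration that stops growth completely.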

Among the test systems are NCI/ADR-RES ovarian; U251 CNS; TK-10 renal; HS 578T breast; SK-MEL-5 melanoma; HCT-116 colon; T-47D breast; KM12 colon; MDA-MB-435; HT29 colon; NCI-H460 lung; HOP-92 NSCLC; MOLT-4 leukemia; HCC-2998 colon; RPMI-8226 leukemia; NCI-H522 lung; SK-MEL-2 melanoma; A498 renal; MDA-N.
Common to all, as to assay: NCI tumour cell line growth inhibition, 48 h

In the case of `CCOC(=O)NNC(=O)C1CSC(c2ccccc2)N1C(C)=O` (configuration not stated), the TGI in the assay with NCI/ADR-RES ovarian, in the assay with U251 CNS, in the assay on TK-10 renal, with HS 578T breast, with SK-MEL-5 melanoma and in the assay on HCT-116 colon was > 100 µM throughout. The TGI with T-47D breast, in the assay on KM12 colon, in the assay with MDA-MB-435, with HT29 colon, with NCI-H460 lung and with HOP-92 NSCLC was > 100 µM in each case. Also, the TGI with MOLT-4 leukemia, with HCC-2998 colon, in the assay with RPMI-8226 leukemia, in the assay on NCI-H522 lung, in the assay with SK-MEL-2 melanoma and in the assay with A498 renal was > 100 µM in each case.

In the case of `Cc1ccc2nc(CN3CCCC(O)C3)cc(=O)n2c1` (configuration not stated), the TGI in the assay on NCI/ADR-RES ovarian, with U251 CNS, in the assay on TK-10 renal, in the assay on HS 578T breast, with HCT-116 colon and in the assay on KM12 colon was > 100 µM in each case. In addition, the TGI in the assay with MDA-MB-435, with HT29 colon, in the assay on MDA-N, in the assay with NCI-H460 lung, in the assay with HOP-92 NSCLC and in the assay on MOLT-4 leukemia was > 100 µM in each case. Further, the TGI in the assay with HCC-2998 colon, in the assay with RPMI-8226 leukemia, with NCI-H522 lung and in the assay on SK-MEL-2 melanoma was > 100 µM throughout.

In the case of `CCN(CC)C(=C(C(Cl)=C(Cl)Cl)[N+](=O)[O-])N(CC)CC`, the TGI with NCI/ADR-RES ovarian is > 100 µM; with U251 CNS it was > 100 µM; in the assay on TK-10 renal, > 100 µM; in the assay with HS 578T breast, 68.5 µM; with SK-MEL-5 melanoma, > 100 µM; in the assay on HCT-116 colon it was > 100 µM. Besides, the TGI in the assay on T-47D breast, in the assay with KM12 colon, in the assay with HT29 colon, with MDA-N, in the assay with NCI-H460 lung and with MOLT-4 leukemia was > 100 µM each time. Besides, the TGI in the assay on HCC-2998 colon, in the assay with RPMI-8226 leukemia and with A498 renal was > 100 µM in each case.

As for `O=[n+]1c2ccccc2n([O-])c2ccccc21`, the TGI with NCI/ADR-RES ovarian, in the assay on U251 CNS, with TK-10 renal, in the assay on HS 578T breast, with SK-MEL-5 melanoma and in the assay on HCT-116 colon was > 100 µM each time. In addition, the TGI with T-47D breast was > 100 µM; with MDA-MB-435, > 100 µM; in the assay with HT29 colon, > 100 µM; with NCI-H460 lung, > 100 µM; in the assay with MOLT-4 leukemia, 81.2 µM; with RPMI-8226 leukemia, > 100 µM. In addition, the TGI in the assay with NCI-H522 lung, in the assay on SK-MEL-2 melanoma and in the assay with A498 renal was > 100 µM throughout.

As to `COC1CC(C)C(OC)C2=CC(=O)C=C(NC(=O)/C(C)=C/C=C\C(C)C(OC(N)=O)/C(C)=C\C(C)C1OC)C2=O` (configuration not stated), the TGI turned out to be 11 µM in the assay on U251 CNS; 9.81 µM in the assay on TK-10 renal; 15 µM with SK-MEL-5 melanoma; 1.51 µM in the assay with HCT-116 colon; 1.43 µM with KM12 colon; 8.37 µM in the assay with NCI-H460 lung. The TGI is 10.9 µM with HOP-92 NSCLC; 1.04 µM with MOLT-4 leukemia; 2.11 µM with HCC-2998 colon; 4.39 µM with RPMI-8226 leukemia; 0.728 µM in the assay on NCI-H522 lung; 21.5 µM in the assay with SK-MEL-2 melanoma. In the assay with A498 renal, this compound registered a TGI of 24.2 µM. For the same compound, the GI50 in the assay on NCI-H522 lung is 0.0592 µM.

With `N=c1oc2ccc([N+](=O)[O-])cc2cc1C(=O)NCc1ccccc1`, the TGI stood at 33.6 µM with NCI/ADR-RES ovarian; 83 µM with U251 CNS; 99.4 µM in the assay on TK-10 renal; 42.9 µM in the assay with HS 578T breast; 41.6 µM in the assay with SK-MEL-5 melanoma; 32 µM in the assay on HCT-116 colon. Further, the TGI is 67.3 µM in the assay with T-47D breast; 36.7 µM with KM12 colon; 49.3 µM in the assay on MDA-MB-435; 40.7 µM with HT29 colon; > 100 µM with NCI-H460 lung; 36.7 µM in the assay with HOP-92 NSCLC. Besides, the TGI with MOLT-4 leukemia was > 100 µM; in the assay with HCC-2998 colon, > 100 µM; with RPMI-8226 leukemia, > 100 µM; with NCI-H522 lung, 25.8 µM; with SK-MEL-2 melanoma it was 39.1 µM.

Consider `Ic1ncnc2c1ncn2C1CCCO1` (configuration not stated), for which the TGI in the assay on U251 CNS, in the assay with TK-10 renal, with SK-MEL-5 melanoma, in the assay with HCT-116 colon, in the assay with KM12 colon and in the assay on HT29 colon was > 100 µM each time. Also, the TGI in the assay with NCI-H460 lung, with HOP-92 NSCLC, in the assay with MOLT-4 leukemia, with HCC-2998 colon, with RPMI-8226 leukemia and in the assay with NCI-H522 lung was > 100 µM in each case. The TGI with SK-MEL-2 melanoma and in the assay with A498 renal was > 100 µM each time.

Regarding `COC(=O)C(C)NP(=O)(N1CC1)N1CC1` (configuration not stated), the TGI with U251 CNS, in the assay with TK-10 renal, in the assay with SK-MEL-5 melanoma, with KM12 colon, in the assay on HT29 colon and in the assay on MOLT-4 leukemia was > 100 µM each time. The TGI in the assay with HCC-2998 colon, in the assay on RPMI-8226 leukemia, in the assay with NCI-H522 lung, in the assay on SK-MEL-2 melanoma and in the assay on A498 renal was > 100 µM throughout.

Regarding `COc1cc(C2SCC(=O)N2c2ccccc2Cl)cc(OC)c1OC` (configuration not stated), the TGI in the assay on NCI/ADR-RES ovarian, in the assay on U251 CNS, with TK-10 renal, in the assay with HS 578T breast, in the assay on SK-MEL-5 melanoma and in the assay with HCT-116 colon was > 100 µM in each case. The TGI in the assay with KM12 colon is > 100 µM; in the assay with MDA-MB-435, 64.8 µM; with HT29 colon, > 100 µM; in the assay with MDA-N, 44.8 µM; in the assay on NCI-H460 lung, > 100 µM; in the assay with HOP-92 NSCLC it was > 100 µM. Also, the TGI with HCC-2998 colon, with RPMI-8226 leukemia, with NCI-H522 lung, in the assay with SK-MEL-2 melanoma and in the assay with A498 renal was > 100 µM in each case.

Values taken from PubChem BioAssay (NCI).
